Laboratory results as given in ChEMBL document CHEMBL4804284.
The source made the active and inactive calls. The rule behind the calls is not given here.

Columns and labels:
[1] = target: Serine/threonine-protein kinase SBK1 (Homo sapiens) (UniProt Q52WX2); assay: Inhibition of DNA-tagged human SBK1 assessed as percent of control at 50000 nM by qPCR analysis relative to control; design: scale not given: the % may be the effect or the level left
[2] = target: Dual specificity mitogen-activated protein kinase kinase 3 (Homo sapiens) (UniProt P46734); assay: Inhibition of DNA-tagged human MEK3 assessed as percent of control at 50000 nM by qPCR analysis relative to control; design: scale not given: the % may be the effect or the level left
[3] = target: Serine/threonine-protein kinase TBK1 (Homo sapiens) (UniProt Q9UHD2); assay: Inhibition of DNA-tagged human TBK1 assessed as percent of control at 50000 nM by qPCR analysis relative to control; design: scale not given: the % may be the effect or the level left
[4] = target: Tyrosine-protein kinase Fyn (Homo sapiens) (UniProt P06241); assay: Inhibition of DNA-tagged human FYN assessed as percent of control at 50000 nM by qPCR analysis relative to control; design: scale not given: the % may be the effect or the level left
[5] = tested on: Receptor-type tyrosine-protein kinase FLT3 (Homo sapiens), P36888 [D835Y]; assay: Inhibition of DNA-tagged human FLT3 D835Y mutant assessed as percent of control at 50000 nM by qPCR analysis relative to control; design: scale not given: the % may be the effect or the level left
[6] = target: Phosphorylase b kinase gamma catalytic chain, skeletal muscle/heart isoform (Homo sapiens) (UniProt Q16816); assay: Inhibition of DNA-tagged human PHKG1 assessed as percent of control at 50000 nM by qPCR analysis relative to control; design: scale not given: the % may be the effect or the level left
[7] = target: Serine/threonine-protein kinase B-raf (Homo sapiens) (UniProt P15056); assay: Inhibition of DNA-tagged human BRAF assessed as percent of control at 50000 nM by qPCR analysis relative to control; design: scale not given: the % may be the effect or the level left
Serine/threonine-protein kinase B-raf (Homo sapiens), sequence (P15056 whole entry): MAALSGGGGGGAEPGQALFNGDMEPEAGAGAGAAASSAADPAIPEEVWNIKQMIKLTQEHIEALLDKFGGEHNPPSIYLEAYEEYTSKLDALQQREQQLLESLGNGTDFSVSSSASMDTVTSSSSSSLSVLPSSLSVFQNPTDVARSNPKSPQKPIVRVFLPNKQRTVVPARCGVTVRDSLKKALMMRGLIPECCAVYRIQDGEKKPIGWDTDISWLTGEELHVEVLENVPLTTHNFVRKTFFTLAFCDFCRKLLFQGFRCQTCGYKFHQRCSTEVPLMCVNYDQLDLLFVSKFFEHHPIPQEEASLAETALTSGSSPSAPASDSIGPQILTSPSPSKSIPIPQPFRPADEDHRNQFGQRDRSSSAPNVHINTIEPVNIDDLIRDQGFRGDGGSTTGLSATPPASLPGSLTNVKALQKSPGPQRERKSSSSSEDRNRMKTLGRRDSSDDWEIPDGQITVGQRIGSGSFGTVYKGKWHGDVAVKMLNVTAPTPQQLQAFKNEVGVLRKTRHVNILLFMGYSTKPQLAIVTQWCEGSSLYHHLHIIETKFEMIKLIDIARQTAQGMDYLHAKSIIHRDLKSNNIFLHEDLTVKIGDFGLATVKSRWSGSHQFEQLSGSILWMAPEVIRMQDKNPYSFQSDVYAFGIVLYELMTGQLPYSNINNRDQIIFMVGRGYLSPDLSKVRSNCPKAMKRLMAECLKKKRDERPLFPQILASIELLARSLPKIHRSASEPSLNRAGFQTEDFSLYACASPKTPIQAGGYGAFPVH

[8] = target: Cyclin-dependent kinase 7 (Homo sapiens) (UniProt P50613); assay: Inhibition of DNA-tagged human CDK7 assessed as percent of control at 50000 nM by qPCR analysis relative to control; design: scale not given: the % may be the effect or the level left
Cyclin-dependent kinase 7 (Homo sapiens), sequence (P50613 whole entry): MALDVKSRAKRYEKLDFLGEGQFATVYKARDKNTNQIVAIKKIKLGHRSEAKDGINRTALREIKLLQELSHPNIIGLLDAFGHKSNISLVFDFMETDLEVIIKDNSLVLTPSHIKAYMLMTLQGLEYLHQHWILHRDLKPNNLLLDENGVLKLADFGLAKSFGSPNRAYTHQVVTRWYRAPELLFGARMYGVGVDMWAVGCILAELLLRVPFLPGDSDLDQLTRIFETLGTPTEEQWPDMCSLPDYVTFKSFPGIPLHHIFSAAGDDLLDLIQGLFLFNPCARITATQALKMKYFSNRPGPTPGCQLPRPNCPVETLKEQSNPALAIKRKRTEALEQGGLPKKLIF

[9] = target: Dual specificity protein kinase TTK (Homo sapiens) (UniProt P33981); assay: Inhibition of DNA-tagged human TTK assessed as percent of control at 50000 nM by qPCR analysis relative to control; design: scale not given: the % may be the effect or the level left
[10] = target: Cyclin-dependent kinase 8 (Homo sapiens) (UniProt P49336); assay: Inhibition of DNA-tagged human CDK8 assessed as percent of control at 50000 nM by qPCR analysis relative to control; design: scale not given: the % may be the effect or the level left
[11] = target: Ephrin type-A receptor 5 (Homo sapiens) (UniProt P54756); assay: Inhibition of DNA-tagged human EPHA5 assessed as percent of control at 50000 nM by qPCR analysis relative to control; design: scale not given: the % may be the effect or the level left
Ephrin type-A receptor 5 (Homo sapiens), sequence (P54756 whole entry): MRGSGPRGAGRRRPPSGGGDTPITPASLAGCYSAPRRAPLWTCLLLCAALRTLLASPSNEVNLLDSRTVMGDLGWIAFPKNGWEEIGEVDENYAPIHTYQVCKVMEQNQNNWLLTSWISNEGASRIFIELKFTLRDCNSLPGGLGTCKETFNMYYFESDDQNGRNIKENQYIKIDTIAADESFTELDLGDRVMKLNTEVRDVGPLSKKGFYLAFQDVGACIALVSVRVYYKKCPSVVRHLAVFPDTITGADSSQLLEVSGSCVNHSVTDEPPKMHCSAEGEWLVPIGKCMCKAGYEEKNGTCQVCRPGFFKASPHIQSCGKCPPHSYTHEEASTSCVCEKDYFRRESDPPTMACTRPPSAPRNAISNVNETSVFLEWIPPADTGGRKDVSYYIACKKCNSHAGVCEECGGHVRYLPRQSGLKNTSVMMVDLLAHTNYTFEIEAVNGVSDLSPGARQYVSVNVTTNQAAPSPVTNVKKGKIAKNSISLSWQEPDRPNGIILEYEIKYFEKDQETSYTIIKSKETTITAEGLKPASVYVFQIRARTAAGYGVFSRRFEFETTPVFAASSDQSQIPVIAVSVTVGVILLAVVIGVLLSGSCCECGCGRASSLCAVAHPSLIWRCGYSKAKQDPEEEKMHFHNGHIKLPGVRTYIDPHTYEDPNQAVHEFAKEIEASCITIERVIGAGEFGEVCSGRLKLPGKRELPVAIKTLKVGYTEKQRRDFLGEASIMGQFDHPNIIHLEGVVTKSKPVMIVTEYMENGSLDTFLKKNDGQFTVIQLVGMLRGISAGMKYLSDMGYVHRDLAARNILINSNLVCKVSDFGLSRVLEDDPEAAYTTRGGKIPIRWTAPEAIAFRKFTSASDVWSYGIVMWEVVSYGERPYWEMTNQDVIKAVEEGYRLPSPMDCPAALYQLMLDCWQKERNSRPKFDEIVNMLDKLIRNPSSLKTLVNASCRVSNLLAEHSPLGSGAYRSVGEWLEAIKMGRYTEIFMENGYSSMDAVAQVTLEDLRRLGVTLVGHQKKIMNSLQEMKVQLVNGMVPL

[12] = target: Vascular endothelial growth factor receptor 3 (Homo sapiens) (UniProt P35916); assay: Inhibition of DNA-tagged human FLT4 assessed as percent of control at 50000 nM by qPCR analysis relative to control; design: scale not given: the % may be the effect or the level left
[13] = target: Serine/threonine-protein kinase/endoribonuclease IRE1 (Homo sapiens) (UniProt O75460); assay: Inhibition of DNA-tagged human ERN1 assessed as percent of control at 50000 nM by qPCR analysis relative to control; design: scale not given: the % may be the effect or the level left
[14] = target: SRSF protein kinase 2 (Homo sapiens) (UniProt P78362); assay: Inhibition of DNA-tagged human SRPK2 assessed as percent of control at 50000 nM by qPCR analysis relative to control; design: scale not given: the % may be the effect or the level left
[15] = target: Inhibitor of nuclear factor kappa-B kinase subunit epsilon (Homo sapiens) (UniProt Q14164); assay: Inhibition of DNA-tagged human IKK-epsilon assessed as percent of control at 50000 nM by qPCR analysis relative to control; design: scale not given: the % may be the effect or the level left
[16] = target: Serine/threonine-protein kinase TAO3 (Homo sapiens) (UniProt Q9H2K8); assay: Inhibition of DNA-tagged human TAOK3 assessed as percent of control at 50000 nM by qPCR analysis relative to control; design: scale not given: the % may be the effect or the level left
[17] = tested on: Hepatocyte growth factor receptor (Homo sapiens), P08581 [M1250T]; assay: Inhibition of DNA-tagged human MET M1250T mutant assessed as percent of control at 50000 nM by qPCR analysis relative to control; design: scale not given: the % may be the effect or the level left
[18] = target: Mitogen-activated protein kinase kinase kinase 13 (Homo sapiens) (UniProt O43283); assay: Inhibition of DNA-tagged human LZK assessed as percent of control at 50000 nM by qPCR analysis relative to control; design: scale not given: the % may be the effect or the level left
Mitogen-activated protein kinase kinase kinase 13 (Homo sapiens), sequence (O43283 whole entry): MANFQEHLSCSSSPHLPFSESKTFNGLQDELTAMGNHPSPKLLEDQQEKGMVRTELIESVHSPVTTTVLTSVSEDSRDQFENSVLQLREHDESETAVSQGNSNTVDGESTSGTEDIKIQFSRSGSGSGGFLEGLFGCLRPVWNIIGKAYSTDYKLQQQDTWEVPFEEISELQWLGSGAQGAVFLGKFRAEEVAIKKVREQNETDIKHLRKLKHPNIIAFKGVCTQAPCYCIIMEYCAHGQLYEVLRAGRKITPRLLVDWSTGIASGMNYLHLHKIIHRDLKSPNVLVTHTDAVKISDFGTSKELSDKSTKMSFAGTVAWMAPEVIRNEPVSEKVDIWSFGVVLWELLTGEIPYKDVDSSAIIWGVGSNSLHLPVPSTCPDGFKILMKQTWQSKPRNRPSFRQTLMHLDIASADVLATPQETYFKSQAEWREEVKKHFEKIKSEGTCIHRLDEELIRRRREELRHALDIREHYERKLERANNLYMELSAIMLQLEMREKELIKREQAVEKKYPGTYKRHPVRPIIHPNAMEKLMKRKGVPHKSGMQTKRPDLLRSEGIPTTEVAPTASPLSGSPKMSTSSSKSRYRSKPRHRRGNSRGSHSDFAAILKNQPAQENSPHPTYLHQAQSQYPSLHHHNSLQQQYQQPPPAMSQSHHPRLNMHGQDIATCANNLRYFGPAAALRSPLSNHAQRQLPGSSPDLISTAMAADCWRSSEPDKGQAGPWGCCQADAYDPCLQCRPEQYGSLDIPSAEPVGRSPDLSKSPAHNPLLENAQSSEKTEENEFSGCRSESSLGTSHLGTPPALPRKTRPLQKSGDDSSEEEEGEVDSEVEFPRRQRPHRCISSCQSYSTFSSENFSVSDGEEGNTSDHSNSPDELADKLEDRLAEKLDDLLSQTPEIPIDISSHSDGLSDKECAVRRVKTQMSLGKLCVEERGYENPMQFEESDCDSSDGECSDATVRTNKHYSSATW

[19] = target: Serine/threonine-protein kinase SIK3 (Homo sapiens) (UniProt Q9Y2K2); assay: Inhibition of DNA-tagged human QSK assessed as percent of control at 50000 nM by qPCR analysis relative to control; design: scale not given: the % may be the effect or the level left
[20] = target: Phosphatidylinositol 5-phosphate 4-kinase type-2 beta (Homo sapiens) (UniProt P78356); assay: Inhibition of DNA-tagged human PIP5K2B assessed as percent of control at 50000 nM by qPCR analysis relative to control; design: scale not given: the % may be the effect or the level left
[21] = target: Dual specificity protein kinase CLK2 (Homo sapiens) (UniProt P49760); assay: Inhibition of DNA-tagged human CLK2 assessed as percent of control at 50000 nM by qPCR analysis relative to control; design: scale not given: the % may be the effect or the level left
[22] = target: Ephrin type-B receptor 2 (Homo sapiens) (UniProt P29323); assay: Inhibition of DNA-tagged human EPHB2 assessed as percent of control at 50000 nM by qPCR analysis relative to control; design: scale not given: the % may be the effect or the level left
Ephrin type-B receptor 2 (Homo sapiens), sequence (P29323 whole entry): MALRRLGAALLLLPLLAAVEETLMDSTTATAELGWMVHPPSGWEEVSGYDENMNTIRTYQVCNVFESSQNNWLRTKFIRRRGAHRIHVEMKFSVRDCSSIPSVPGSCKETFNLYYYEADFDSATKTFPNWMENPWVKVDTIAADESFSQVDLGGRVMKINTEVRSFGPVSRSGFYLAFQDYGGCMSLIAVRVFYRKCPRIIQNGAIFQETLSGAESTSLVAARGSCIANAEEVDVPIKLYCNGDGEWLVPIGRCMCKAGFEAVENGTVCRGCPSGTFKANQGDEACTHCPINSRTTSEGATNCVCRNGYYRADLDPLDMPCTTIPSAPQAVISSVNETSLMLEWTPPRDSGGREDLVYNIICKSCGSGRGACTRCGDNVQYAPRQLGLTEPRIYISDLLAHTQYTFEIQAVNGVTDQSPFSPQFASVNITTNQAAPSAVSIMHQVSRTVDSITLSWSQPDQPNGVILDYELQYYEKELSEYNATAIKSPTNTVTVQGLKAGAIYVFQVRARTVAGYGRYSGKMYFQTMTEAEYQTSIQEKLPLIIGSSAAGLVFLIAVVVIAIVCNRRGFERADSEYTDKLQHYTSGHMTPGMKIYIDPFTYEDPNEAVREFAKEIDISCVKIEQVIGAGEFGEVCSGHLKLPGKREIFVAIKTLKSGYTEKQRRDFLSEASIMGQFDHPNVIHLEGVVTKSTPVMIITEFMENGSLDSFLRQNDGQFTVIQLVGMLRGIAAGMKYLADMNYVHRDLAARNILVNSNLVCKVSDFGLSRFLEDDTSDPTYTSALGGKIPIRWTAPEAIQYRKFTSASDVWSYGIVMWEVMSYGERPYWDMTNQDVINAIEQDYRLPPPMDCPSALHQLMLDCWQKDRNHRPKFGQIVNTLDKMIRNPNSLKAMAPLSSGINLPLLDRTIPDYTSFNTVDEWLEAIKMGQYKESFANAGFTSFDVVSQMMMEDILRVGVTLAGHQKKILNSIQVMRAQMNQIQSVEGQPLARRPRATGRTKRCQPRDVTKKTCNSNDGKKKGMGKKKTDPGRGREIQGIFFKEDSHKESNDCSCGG

[23] = tested on: Tyrosine-protein kinase ABL1 (Homo sapiens), P00519 [Q252H]; assay: Inhibition of DNA-tagged non-phosphorylated human ABL1 Q252H mutant assessed as percent of control at 50000 nM by qPCR analysis relative to control; design: scale not given: the % may be the effect or the level left
MV4-11 = assay: Cytotoxicity against human MV4-11 cells expressing FLT3-ITD at 0.1-100 uM assessed as decrease in cell viability relative to control; assay type: functional, cell-based
[24] = target: Cyclin-dependent kinase 2 homolog (Plasmodium falciparum (isolate K1 / Thailand)) (UniProt Q07785); assay: Inhibition of DNA-tagged Plasmodium falciparum PFPK5 assessed as percent of control at 50000 nM by qPCR analysis relative to control; design: scale not given: the % may be the effect or the level left
[25] = target: Myosin light chain kinase 2, skeletal/cardiac muscle (Homo sapiens) (UniProt Q9H1R3); assay: Inhibition of DNA-tagged human MYLK2 assessed as percent of control at 50000 nM by qPCR analysis relative to control; design: scale not given: the % may be the effect or the level left
[26] = target: Serine/threonine-protein kinase PLK2 (Homo sapiens) (UniProt Q9NYY3); assay: Inhibition of DNA-tagged human PLK2 assessed as percent of control at 50000 nM by qPCR analysis relative to control; design: scale not given: the % may be the effect or the level left
Serine/threonine-protein kinase PLK2 (Homo sapiens), sequence (Q9NYY3 whole entry, looked up): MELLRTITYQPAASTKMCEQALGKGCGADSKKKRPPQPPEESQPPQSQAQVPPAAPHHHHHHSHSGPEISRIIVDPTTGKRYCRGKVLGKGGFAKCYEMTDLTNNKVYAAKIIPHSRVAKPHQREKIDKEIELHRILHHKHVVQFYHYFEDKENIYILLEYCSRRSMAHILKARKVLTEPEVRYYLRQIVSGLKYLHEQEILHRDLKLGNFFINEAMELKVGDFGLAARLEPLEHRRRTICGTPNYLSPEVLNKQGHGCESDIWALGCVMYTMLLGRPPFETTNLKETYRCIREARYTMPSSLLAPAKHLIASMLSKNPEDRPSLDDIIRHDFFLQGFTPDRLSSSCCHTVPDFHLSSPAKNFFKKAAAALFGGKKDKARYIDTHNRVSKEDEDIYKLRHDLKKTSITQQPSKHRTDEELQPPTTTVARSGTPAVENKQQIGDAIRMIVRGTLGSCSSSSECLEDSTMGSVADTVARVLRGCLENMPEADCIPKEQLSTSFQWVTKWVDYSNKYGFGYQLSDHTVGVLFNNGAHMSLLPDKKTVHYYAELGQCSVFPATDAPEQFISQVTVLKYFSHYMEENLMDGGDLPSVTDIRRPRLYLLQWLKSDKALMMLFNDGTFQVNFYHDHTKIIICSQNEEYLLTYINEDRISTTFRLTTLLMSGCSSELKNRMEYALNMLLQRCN

[27] = tested on: Epidermal growth factor receptor (Homo sapiens), P00533 [UNDEFINED MUTATION]; assay: Inhibition of DNA-tagged human EGFR S752-1759del mutant assessed as percent of control at 50000 nM by qPCR analysis relative to control; design: scale not given: the % may be the effect or the level left
[28] = target: Homeodomain-interacting protein kinase 2 (Homo sapiens) (UniProt Q9H2X6); assay: Inhibition of DNA-tagged human HIPK2 assessed as percent of control at 50000 nM by qPCR analysis relative to control; design: scale not given: the % may be the effect or the level left
[29] = target: TGF-beta receptor type-2 (Homo sapiens) (UniProt P37173); assay: Inhibition of DNA-tagged human TGFBR2 assessed as percent of control at 50000 nM by qPCR analysis relative to control; design: scale not given: the % may be the effect or the level left

Structure (SMILES): CN1C(=O)/C(=C2/C(=O)Nc3ccccc32)c2ccccc21
- Activity [1]: 100%
- Activity [2]: 72%
- Activity [3]: 50%
- Activity [4]: 100%
- Activity [5]: 75%
- Activity [6]: 97%
- Activity [7]: 84%
- Activity [8]: 100%
- Activity [9]: 88%
- Activity [10]: 100%
- Activity [11]: 96%
- Activity [12]: 100%
- Activity [13]: 83%
- Activity [14]: 100%
- Activity [15]: 100%
- Activity [16]: 85%
- Activity [17]: 80%
- Activity [18]: 63%
- Activity [19]: 100%
- Activity [20]: 100%
- Activity [21]: 75%
- Activity [22]: 100%
- Activity [23]: 100%
- Activity (MV4-11): Active
- Activity [24]: 72%
- Activity [25]: 94%
- Activity [26]: 94%
- Activity [27]: 88%
- Activity [28]: 66%
- Activity [29]: 94%
